Experiments:
[1] = target: T1, Topoisomerase II (Homo sapiens, UniProt P11388); experiment: Topoisomerase II inhibition screening (supercoiled plasmid relaxation, then kDNA decatenation); format: biochemical; set-up: key to TOP2 Inhib.: Y is an indication that activity was found; settings: for relative activity among compounds tested in the screening round: medium throughput relaxation and kDNA decatenation assays
T1 construct: purchased TopoGENE (TopoGEN) TG2000H / kit TG1001
Procedure: In vitro Topo II activity assays—K-DNA decatenation assays were performed using the human Topo II assay kit (TG1001, TopoGENE™) with Etoposide and ICRF193 as poison and catalytic inhibitors respectively. DNA relaxation assays were performed by incubating the supercoiled pHOT™ plasmid with human Topo IIα (TG2000H™, TopoGENE™) at 37 degrees for one hour. Reactions were stopped by adding 10% SDS, EDTA and proteinase K. Plasmid DNAs were separated on DNA agarose gel and stained with ethidium bromide for visualization.
Medium Throughput Screening Assays A supercoiled plasmid relaxation assay was used as a first, course filter to determine candidate small molecules. Small molecule candidates that were sufficiently active in the first round screening were then subject to the kDNA decatenation assay.
Second Round Screening With the discovered active compounds 19 and 23, a new screen was initiated to look for similar molecules. For this, the shape similarity screening program ROCS™^10 was used The compounds chosen for the ROCS™ search was based on the docking conformation of Compound 23. The ZINC-15 library filtered down to 6 million molecules described previously was used for this screening. The top 62 molecules were hand-picked based on their ROCS™ similarity as well as their docking scores. These molecules were ordered and tested with the same medium throughput assays previously described. A large enrichment in the proportion of active molecules was observed, of close to 10-fold relative to the first round, validating the virtual screening pipeline.

[2] = test system: Cancer Cell; experiment: Cancer cell growth inhibition; format: cell-based; set-up: key: Y is an indication that activity was found
Procedure: BrDU incorporation and cell proliferation assays—Cell proliferation rates were measured by using the CellTitre™ 96 AqueousOne™ kit (Promega™) and bromodeoxyuridine (BrdU) assay kit (Millipore™) according to the manufacturer's protocol, with minor modifications as we have previously described by Li H. et al.^19

[3] = test system: K562 cells; experiment: γH2AX Western blot (DNA damage in cells); format: cell-based; settings: 10-20 μM, 4 hours
Procedure: Cytotoxicity was evaluated by measuring LDH levels from cell culture media; (b) K562 cells were treated with either vehicle or 10-20 μM of Top60, Etoposide and ICRF187 for 4 hours. Whole cell lyses were collected to measure γH2AX levels with vinculin as the loading control; (c) K562 cells were treated with 0, 1, 5, 10, 15 and 20 μM of Top60, 20 μM Etoposide or 20 uM ICRF187 for 48 hours. Cell proliferation rates were determined by MTS assays; and (d) K562 cells were treated with 20 μM of Top60, Etoposide or ICRF187 for 0, 24, 48 and 72 hours. Cell proliferation rates were measured by MTS assays. All results were collected from three independent experiments.
Top60 is a catalytic inhibitor of Topo II To verify that our lead Compound 60(Top60), the formation of ds DNA breaks was assayed both in and outside of cells. To assess whether Top60 causes double stranded DNA breaks outside cells, supercoiled plasmid was incubated with and without Top60 in the presence of Topo II (FIG. 1d). […] Furthermore, H2AXγ protein expression was assessed by Western blot to determine if the lead compound could cause DNA damage in cells, and compared to Etoposide as a control (FIG. 3b). […] To determine if Top60 was capable of intercalating DNA, it was incubated with relaxed plasmid at increasing concentrations and compared with m-AMSA, a known intercalator. […]

T1 sequence (P11388 whole entry): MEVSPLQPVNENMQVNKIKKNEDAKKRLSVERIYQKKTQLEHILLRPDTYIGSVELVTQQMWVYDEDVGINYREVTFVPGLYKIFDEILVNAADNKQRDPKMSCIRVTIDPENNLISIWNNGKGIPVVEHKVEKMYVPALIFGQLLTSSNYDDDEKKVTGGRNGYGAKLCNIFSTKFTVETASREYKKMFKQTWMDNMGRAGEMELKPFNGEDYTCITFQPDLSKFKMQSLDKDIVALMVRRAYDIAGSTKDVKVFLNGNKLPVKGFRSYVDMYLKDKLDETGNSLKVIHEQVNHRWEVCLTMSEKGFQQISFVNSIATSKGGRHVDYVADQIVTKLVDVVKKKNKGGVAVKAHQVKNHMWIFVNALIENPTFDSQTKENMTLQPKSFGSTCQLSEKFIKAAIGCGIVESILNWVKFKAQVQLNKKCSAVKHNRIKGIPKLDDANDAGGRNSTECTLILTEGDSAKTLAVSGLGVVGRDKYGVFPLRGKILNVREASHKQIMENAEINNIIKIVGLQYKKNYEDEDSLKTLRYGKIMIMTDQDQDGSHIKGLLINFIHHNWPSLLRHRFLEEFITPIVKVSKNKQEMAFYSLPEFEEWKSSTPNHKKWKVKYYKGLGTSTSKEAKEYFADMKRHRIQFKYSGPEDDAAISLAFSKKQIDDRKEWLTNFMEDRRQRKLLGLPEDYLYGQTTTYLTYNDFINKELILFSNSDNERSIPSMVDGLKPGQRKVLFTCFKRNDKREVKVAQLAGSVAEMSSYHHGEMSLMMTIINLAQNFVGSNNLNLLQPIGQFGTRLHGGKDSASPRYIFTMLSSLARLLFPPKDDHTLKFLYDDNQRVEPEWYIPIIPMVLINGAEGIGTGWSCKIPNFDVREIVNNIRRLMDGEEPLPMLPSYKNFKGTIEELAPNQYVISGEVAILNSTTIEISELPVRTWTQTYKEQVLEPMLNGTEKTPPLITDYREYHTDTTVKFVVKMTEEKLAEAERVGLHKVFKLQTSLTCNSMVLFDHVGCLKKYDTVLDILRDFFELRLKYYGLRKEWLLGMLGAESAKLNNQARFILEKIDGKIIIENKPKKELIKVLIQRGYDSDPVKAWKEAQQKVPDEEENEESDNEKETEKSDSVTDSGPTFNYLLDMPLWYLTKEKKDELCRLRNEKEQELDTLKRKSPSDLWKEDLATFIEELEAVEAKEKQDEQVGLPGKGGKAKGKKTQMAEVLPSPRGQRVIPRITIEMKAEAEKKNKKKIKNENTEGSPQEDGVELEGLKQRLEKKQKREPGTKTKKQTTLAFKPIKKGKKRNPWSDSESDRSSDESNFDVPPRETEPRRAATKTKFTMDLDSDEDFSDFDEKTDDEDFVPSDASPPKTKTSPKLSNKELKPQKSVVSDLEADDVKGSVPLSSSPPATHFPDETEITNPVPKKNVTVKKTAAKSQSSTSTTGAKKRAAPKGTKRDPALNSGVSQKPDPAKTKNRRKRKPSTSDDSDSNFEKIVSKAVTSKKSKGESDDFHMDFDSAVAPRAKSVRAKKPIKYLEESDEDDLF

| Compound | TOP2 Inhib. [1] | Cancer Cell Growth Inhib. [2] | relative activity among compounds tested in the screening round [1] | DNA damage in cells by H2AXγ protein level [3] |
| --- | --- | --- | --- | --- |
| CCC(=O)Nc1ccc(NC(=O)c2ccc[nH]c2=S)cc1 [Compound 64] | Y | Y |  |  |
| NC1=C(c2nc3ccccc3s2)C(=O)CN1/N=C\c1ccc(O)c(O)c1 [Compound 19] | Y | Y | most active |  |
| O=C(Nc1ccc(N2CCN(C(=O)c3ccoc3)CC2)cc1)c1ccc(Cl)c(Cl)c1 [Compound 88] | Y | Y |  |  |
| O=C(Nc1ccc(CN2CCCC2)cc1)c1ccc[nH]c1=S [Compound 62] | Y | Y |  |  |
| COc1cccc(Oc2ccc(NC(=O)c3ccc[nH]c3=S)cc2)c1 [Compound 63] | Y | Y |  |  |
| CC(Nc1ccc(NC(=O)c2ccc[nH]c2=S)cc1)c1ccccc1 (centres unmarked) [Compound 115] | Y | Y |  |  |
| Cc1ccc(C(=O)Nc2ccc(OC3CCCCC3O)cc2)c(=S)[nH]1 (centres unmarked) [Compound 90] | Y | Y |  |  |
| CC(C)CC(=O)Nc1ccc(NC(=O)c2ccc[nH]c2=S)cc1 [Compound 23] | Y | Y | most active |  |
| CSc1ccccc1C(=O)Nc1ccc(NC(=O)CC(C)C)cc1 [Compound 72] | Y | Y |  |  |
| CC(NC(=O)OC(C)(C)C)c1ccc(NC(=O)c2ccc[nH]c2=S)cc1 (centres unmarked) [Compound 67] | Y | Y |  |  |
| O=C(Nc1ccc(N2CCc3sccc3C2)nc1)c1cccnc1S [Compound 110] | Y | Y |  |  |
| CC(C(C)N1CC(=O)NC(=O)C1)N1CC(=O)NC(=O)C1 (centres unmarked) [ICRF, 4-[2-(3,5-Dioxo-1-piperazinyl)-1-methylpropyl]piperazine-2,6-dione, reference compound] |  |  |  | do not cause DNA damage |
| CC(Nc1ccc(NC(=O)c2ccc[nH]c2=S)cc1Cl)c1ccccc1 (centres unmarked) [Compound 77] | Y | Y |  |  |
| N#Cc1ccc(Oc2ccc(NC(=O)c3ccc[nH]c3=S)cc2)cc1 [Compound 65] | Y | Y |  |  |
| COc1ccc(Nc2ccc(NC(=O)c3cccnc3S)cc2)cc1 [Compound 112] | Y | Y |  |  |
| O=C(Nc1ccc(NC2CCCC2)cc1)c1ccc[nH]c1=S [Compound 70] | Y | Y |  |  |
| O=C(Nc1ccc(NC(=O)N2CCCCCC2)cc1)c1ccc[nH]c1=S [Compound 75] | Y | Y |  |  |
| COc1ccc(Sc2ccc(NC(=O)c3ccc[nH]c3=S)cc2)cc1 [Compound 68] | Y | Y |  |  |
| O=C(Nc1ccc(-n2cc(Br)cn2)nc1)c1ccc2ncsc2c1 [Compound 89] | Y | Y |  |  |
| CCC(=O)Nc1ccc(Nc2ccc(NC(=O)c3cccnc3S)cc2)cc1 [Compound 113] | Y | Y |  |  |
